Tested on: Subject B site (forearm microconduit)
Assay: Lidocaine applied on forearm microconduit site, anesthetic effect (Example 3)
Assay type: in vivo, human
Details: 3% lidocaine applied on Subject B microconduit site

`CCN(CC)CC(=O)Nc1c(C)cccc1C` [lidocaine] was tested, and the anesthetic effects was “No discernible anesthetic effects were observed”.

Source: patent US7597692B2, “Microscission processes and procedures” (Massachusetts Institute of Technology, priority 2000, dated 2009)
